{"source": "ChEMBL document CHEMBL1201862", "about": "“PubChem BioAssay data set” (2004)", "key": {"[1]": {"test": "OVCAR8 cell viability loss – plate reader, dry powder samples, PAX8 project, dose response (AID 743197)", "assay_type": "functional, cell-based", "conditions": "OVCAR-8"}, "[2]": {"test": "general mammalian cell viability loss – activator set, cherry-pick, cytotoxicity control for miR-122 modulator project, dose response (AID 720690)", "assay_type": "functional, cell-based"}, "Paired box protein Pax-8": {"target": "Paired box protein Pax-8 (Homo sapiens, UniProt Q06710)", "sequence (Q06710 whole entry)": "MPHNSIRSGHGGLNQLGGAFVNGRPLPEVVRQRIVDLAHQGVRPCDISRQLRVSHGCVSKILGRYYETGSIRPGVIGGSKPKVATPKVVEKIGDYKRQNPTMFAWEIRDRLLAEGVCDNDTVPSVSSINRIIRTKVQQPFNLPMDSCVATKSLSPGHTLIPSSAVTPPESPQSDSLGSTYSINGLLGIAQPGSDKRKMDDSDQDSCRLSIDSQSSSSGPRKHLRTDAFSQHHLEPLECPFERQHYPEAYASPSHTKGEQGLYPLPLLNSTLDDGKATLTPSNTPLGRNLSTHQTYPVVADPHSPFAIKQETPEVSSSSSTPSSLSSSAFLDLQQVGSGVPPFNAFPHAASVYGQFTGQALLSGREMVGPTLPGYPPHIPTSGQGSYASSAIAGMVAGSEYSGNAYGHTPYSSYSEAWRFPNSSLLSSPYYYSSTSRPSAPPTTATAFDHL", "test": "PAX8 transcriptional activity inhibition in RMG-I – RMG-I cells, luciferase, cherry-pick, dose response (AID 687027);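 also: luciferase reporter driven by Pax8 target thyroperoxidase promoter measured by SteadyGlo luminescence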", "assay_type": "functional, cell-based"}, "[3]": {"test": "activation of miR-122 Renilla sensor silencing – cell-based, Huh7 psiCHECK-miR122, Renilla luciferase, cherry-picked, dose response (AID 651956);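 also: huh7 hepatoma cells stably carrying a psiCHECK-2 miR-122 sensor plasmid; renilla luciferase signal reporting endogenous miR-122 activity after 48 h compound exposure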", "assay_type": "functional"}, "HepG2": {"system": "HepG2", "test": "viability loss in HepG2 hepatoma cells – cell-based, cherry-picks, set 2, cytotoxicity control, dose response (AID 687002)", "assay_type": "functional", "conditions": "Homo sapiens"}, "[4]": {"test": "HEK293 Cytotoxicity Assay Measured in Cell-Based System Using Plate Reader - 7071-01_Inhibitor_Dose_CherryPick_Activity_Set2.", "assay_type": "functional"}, "HEK293": {"system": "HEK293", "test": "viability loss in HEK293T cells – cell-based, ATP luminescence, cherry-pick samples, cytotoxicity control, dose response (AID 687005);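 also: cells exposed to compound for 48 hours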", "assay_type": "functional", "conditions": "Homo sapiens"}, "[5]": {"test": "HIV-1 AD8 envelope cell-cell fusion blockers – cherry-pick, dose response (AID 652062);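 also: luciferase signal from cell-cell fusion driven by HIV-1 clade B AD8 Env; potency is for inhibitors of fusion seen as a drop in luminescence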", "assay_type": "functional, cell-based"}, "[6]": {"test": "blockers of HIV-1 envelope-mediated cell-cell fusion – cherry-pick, dose response (AID 652057)", "assay_type": "functional, cell-based"}, "[7]": {"test": "human cervical cancer cell viability loss – 24 h, plate reader, dry powder, cytotoxicity control, dose response (AID 686928)", "assay_type": "functional, cell-based", "conditions": "HeLa"}, "[8]": {"test": "T. cruzi growth inhibition in host cells, dose response, cell-based, plate reader, dry powder, set 2 (AID 652275)", "assay_type": "functional"}, "[9]": {"test": "A Cell-Based Confirmatory Screen for Compounds that Inhibit VEEV, TC-83 (7).", "assay_type": "functional"}, "[10]": {"test": "viability loss in HepG2 hepatoma cells – cell-based, ATP luminescence, cherry-pick, activator set 2, cytotoxicity control, dose response (AID 1053143)", "assay_type": "functional"}, "[11]": {"test": "NIH3T3 cell viability loss – ATP luminescence, mouse fibroblasts, counter-screen, dose response (AID 2010);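 also: cells exposed to compound for about 90 hours before reading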", "assay_type": "functional, cell-based"}, "[12]": {"target": "COUP transcription factor 2 (Homo sapiens, UniProt P24468)", "sequence (P24468 whole entry)": "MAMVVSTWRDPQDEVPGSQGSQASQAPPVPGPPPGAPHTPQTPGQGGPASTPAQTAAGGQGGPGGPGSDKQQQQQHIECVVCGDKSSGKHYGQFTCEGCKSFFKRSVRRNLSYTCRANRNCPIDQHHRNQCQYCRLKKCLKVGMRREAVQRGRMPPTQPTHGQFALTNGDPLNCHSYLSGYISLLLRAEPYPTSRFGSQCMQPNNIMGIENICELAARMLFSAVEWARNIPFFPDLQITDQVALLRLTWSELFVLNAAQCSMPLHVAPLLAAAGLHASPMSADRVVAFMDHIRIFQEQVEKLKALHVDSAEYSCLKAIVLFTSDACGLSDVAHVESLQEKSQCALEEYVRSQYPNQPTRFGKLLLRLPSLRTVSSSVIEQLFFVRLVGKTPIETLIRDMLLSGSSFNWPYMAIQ", "test": "Luminescence-based cell-based high throughput dose response assay to identify inhibitors of COUP-TFII (NR2F2).", "assay_type": "functional"}, "[13]": {"test": "Trypanosoma cruzi growth suppression in host cells – NIH3T3 host cells, beta-gal luminescence, confirmation (AID 2044);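 also: intracellular parasites grown in NIH/3T3 mouse fibroblasts as host cells; luminescent beta-galactosidase reporter signal from transgenic T. cruzi replicating inside host cells; inhibitors lower the luminescence signal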", "assay_type": "functional, cell-based"}, "[14]": {"target": "Potassium channel subfamily K member 9 (Homo sapiens, UniProt Q9NPC2)", "sequence (Q9NPC2 whole entry)": "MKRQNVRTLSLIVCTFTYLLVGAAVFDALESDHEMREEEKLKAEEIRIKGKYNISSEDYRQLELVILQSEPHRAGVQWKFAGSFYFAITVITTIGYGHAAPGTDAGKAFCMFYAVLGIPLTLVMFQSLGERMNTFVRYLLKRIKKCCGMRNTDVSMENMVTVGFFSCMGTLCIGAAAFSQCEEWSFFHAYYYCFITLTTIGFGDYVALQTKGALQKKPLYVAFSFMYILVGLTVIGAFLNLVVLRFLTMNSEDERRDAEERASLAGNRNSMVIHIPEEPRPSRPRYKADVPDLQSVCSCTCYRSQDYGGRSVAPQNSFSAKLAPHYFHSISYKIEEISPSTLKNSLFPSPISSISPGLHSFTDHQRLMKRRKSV", "test": "KCNK9 flux blockade, concentration-response – cell-based, FluxOR thallium flux, selectivity assay for TASK1 inhibitor project, SAR follow-up (AID 652211);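 also: potency is for inhibitors of the channel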", "assay_type": "functional"}, "[15]": {"target": "Potassium channel subfamily K member 3 (Rattus norvegicus, UniProt O54912)", "sequence (O54912 whole entry, the tested form may be a part)": "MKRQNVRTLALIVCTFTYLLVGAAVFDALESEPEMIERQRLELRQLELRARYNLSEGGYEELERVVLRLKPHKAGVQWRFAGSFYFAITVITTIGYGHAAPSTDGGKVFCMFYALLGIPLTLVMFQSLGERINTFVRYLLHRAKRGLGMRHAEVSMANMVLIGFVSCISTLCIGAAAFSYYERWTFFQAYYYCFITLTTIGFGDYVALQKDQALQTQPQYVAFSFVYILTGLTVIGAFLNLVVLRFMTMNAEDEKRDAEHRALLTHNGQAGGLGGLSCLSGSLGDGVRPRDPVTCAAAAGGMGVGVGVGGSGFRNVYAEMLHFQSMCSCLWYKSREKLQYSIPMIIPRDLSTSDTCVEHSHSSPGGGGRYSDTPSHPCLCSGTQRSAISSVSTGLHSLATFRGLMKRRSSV", "test": "SAR analysis for the identification of selective inhibitors of the two-pore domain potassium channel TASK1(KCNK3):Automated Electrophysiology.", "assay_type": "functional"}, "[16]": {"target": "Potassium channel subfamily K member 3 (Homo sapiens, UniProt O14649)", "sequence (O14649 whole entry)": "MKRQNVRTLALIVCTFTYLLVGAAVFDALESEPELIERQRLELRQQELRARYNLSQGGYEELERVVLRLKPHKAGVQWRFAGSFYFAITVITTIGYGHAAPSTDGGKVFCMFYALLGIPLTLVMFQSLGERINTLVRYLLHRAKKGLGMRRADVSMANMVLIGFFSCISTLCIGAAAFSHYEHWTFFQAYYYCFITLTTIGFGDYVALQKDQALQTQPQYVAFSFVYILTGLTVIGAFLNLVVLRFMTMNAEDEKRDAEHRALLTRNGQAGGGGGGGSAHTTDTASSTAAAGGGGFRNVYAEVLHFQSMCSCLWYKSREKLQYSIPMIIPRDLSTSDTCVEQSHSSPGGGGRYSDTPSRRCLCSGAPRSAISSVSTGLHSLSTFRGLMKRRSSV", "test": "inhibition of human KCNK3 channel flux – CHO cells, FluxOR thallium flux, SAR follow-up (AID 652212)", "assay_type": "functional"}, "[17]": {"target": "T1, Trace amine-associated receptor 1 (Homo sapiens, UniProt Q96RJ0)", "T1 sequence (Q96RJ0 whole entry)": "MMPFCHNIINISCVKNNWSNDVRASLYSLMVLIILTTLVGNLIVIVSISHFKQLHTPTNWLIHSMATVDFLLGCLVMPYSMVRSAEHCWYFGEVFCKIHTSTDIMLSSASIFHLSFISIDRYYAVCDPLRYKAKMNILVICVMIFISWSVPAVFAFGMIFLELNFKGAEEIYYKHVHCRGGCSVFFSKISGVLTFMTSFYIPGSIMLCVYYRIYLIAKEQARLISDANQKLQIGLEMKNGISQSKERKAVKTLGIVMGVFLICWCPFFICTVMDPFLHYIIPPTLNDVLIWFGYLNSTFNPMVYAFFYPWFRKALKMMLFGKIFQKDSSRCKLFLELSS", "test": "Fluorescence-based cell-based high throughput dose response assay to identify antagonists of the human trace amine associated receptor 1 (TAAR1).", "assay_type": "functional"}, "[18]": {"test": "Counterscreen for […] of the human trace amine associated receptor 1 (TAAR1): Fluorescence-based cell-based high throughput dose response assay to identify nonselective Ga16 agonists.", "assay_type": "functional"}, "[19]": {"target": "T1, Trace amine-associated receptor 1", "test": "Counterscreen for antagonists of the human trace amine associated receptor 1 (hTAAR1): Fluorescence-based cell-based high throughput dose response assay to identify TAAR1 Agonists.", "assay_type": "functional"}, "[20]": {"test": "Counterscreen for antagonists of the human trace amine associated receptor 1 (hTAAR1): Fluorescence-based cell-based high throughput dose response assay to identify nonselective Ga16 antagonists.", "assay_type": "functional"}}, "note": "Active and inactive are the calls of the source.", "data": [{"smiles": "C[C@@H]1CN([C@@H](C)CO)C(=O)Cc2cc(NC(=O)Nc3ccc(C(F)(F)F)cc3)ccc2O[C@H]1CN(C)Cc1ccc(Oc2ccccc2)cc1", "values": [{"measurement": "AC50", "setting": "[1]", "value": "39.9 µM (active)"}, {"measurement": "AC50", "setting": "[2]", "value": "19.9 µM (active)"}, {"measurement": "AC50", "setting": "Paired box protein Pax-8", "value": "10.3 µM (active)"}, {"measurement": "AC50", "setting": "[3]", "value": "19.9 µM (active)"}]}, {"smiles": "C[C@H](CO)N1C[C@H](C)[C@H](CN(C)Cc2ccccc2F)Oc2cc(C3=CCCC3)ccc2S1(=O)=O", "values": [{"measurement": "AC50", "setting": "HepG2", "value": "19.4 µM (active)"}, {"measurement": "AC50", "setting": "[4]", "value": "18.8 µM (active)"}, {"measurement": "AC50", "setting": "HEK293", "value": "18.8 µM (active)"}, {"measurement": "AC50", "setting": "[5]", "value": "24.4 µM (active)"}, {"measurement": "AC50", "setting": "[6]", "value": "22.8 µM (active)"}]}, {"smiles": "O=C(Nc1nnc(-c2ccc3c(c2)OCCO3)o1)C(F)(F)c1ccccc1", "values": [{"measurement": "AC50", "setting": "[7]", "value": "> 200 µM (inactive)"}]}, {"smiles": "O=C(CN1CCOCC1)N1CCCCN2[C@@H](CO)[C@H](c3ccc(Br)cc3)[C@@H]2C1", "values": [{"measurement": "AC50", "setting": "[8]", "value": "7.96 µM (active)"}]}, {"smiles": "CN1CCN(C)/C(=N/c2ccc(C#N)cc2C(=O)Nc2ccccc2)C1", "values": [{"measurement": "IC50", "setting": "[9]", "value": "0.38 µM (active)"}]}, {"smiles": "Cc1cc2nn(-c3ccc(Cl)cc3)nc2cc1N", "values": [{"measurement": "AC50", "setting": "[10]", "value": "21.4 µM (active)"}]}, {"smiles": "Cc1c(C(=O)N2CCN(Cc3ccc4c(c3)OCO4)CC2)sc2ncnc(N3CCN(c4ccccc4F)CC3)c12", "values": [{"measurement": "EC50", "setting": "[11]", "value": "> 60 µM (not active)"}, {"measurement": "IC50", "setting": "[12]", "value": "6.85 µM (active)"}, {"measurement": "EC50", "setting": "[13]", "value": "0.487 µM (active)"}]}, {"smiles": "CCOc1ccccc1NC(=O)c1cccc(NC(=O)c2cccc(Cl)c2)c1", "values": [{"measurement": "IC50", "setting": "[14]", "value": "1.84 µM (active)"}, {"measurement": "IC50", "setting": "[15]", "value": "2.86 µM (active)"}, {"measurement": "IC50", "setting": "[16]", "value": "0.039 µM (active)"}]}, {"smiles": "Cc1ccc(/C=N/NC(=O)c2ccccc2OCc2cccc(Br)c2)o1", "values": [{"measurement": "IC50", "setting": "[17]", "value": "3.69 µM (active)"}, {"measurement": "EC50", "setting": "[18]", "value": "> 29.9 µM (inactive)"}, {"measurement": "EC50", "setting": "[19]", "value": "> 29.9 µM (inactive)"}, {"measurement": "IC50", "setting": "[20]", "value": "> 29.9 µM (inactive)"}]}]}
